Assay results: paper PMC6382862 (Scientific Reports, 2019)
“And” between values parts separate entries of the source, which are not always exact repeats. Equal values may be shown once.

Columns and labels:
[1] = test system: cell surface LDLR, HepG2 cells; conditions: cited from earlier work
Experimental: It is useful to underline, that in our case the cells were treated with a lower PCSK9 concentration (4 μg/mL) and for a shorter time (2 h) in respect to the conditions applied by Zhang and co-w ... || In a recent study, Zhang and co-workers[18] have developed new antagonists. […] In particular, in presence of PCSK9, Fusion 1 peptid ...

[2] = test system: LDLR protein level on HepG2 cell surface; test: In cell western (ICW) assay of LDLR protein level on HepG2 cell surface in presence of PCSK9; type: cell-based, human; conditions: PCSK9 alone decreased LDLR by 37.62%, mean of three independent experiments
Experimental: This reliable technique was used to investigate the effects of the mutated peptides on the modulation of the LDLR protein levels localized on the HepG2 cell surface. Taking this into consideration, to evaluate only the LDLR surface levels no permeabilization step was included in the applied procedure.
(§1) The HepG2 cell line was cultured in DMEM high glucose with stable L-glutamine supplemented with 10% FBS, 100 U/mL penicillin, 100.0 µg/mL streptomycin and incubated at 37 °C under 5% CO2 atmosphere. HepG2 cells were used for no more than 20 passages after thawing, because the increase of the number of passages may change the cell characteristics and impair assay results.
A total of 3.0 × 10^4 HepG2 cells/well were seeded in 96-well plates, respectively. The following day, cells were washed with PBS and then starved overnight (O/N) in DMEM without FBS.
Treated HepG2 cells were fixed in 4% paraformaldehyde for 20 min at room temperature (RT). Cells were washed 5 times with 100.0 µL of PBS/well (each wash was for 5 min at RT) and the endogenous peroxides activity was quenched adding 3% H2O2 in PBS for 20 min at RT. Non-specific sites were blocked with 100.0 µL/well of 5% BSA in PBS for 1.5 h at RT. LDLR primary antibody solution (1:3000 in 5% BSA in PBS, 25 µL/well) was incubated O/N at 4 °C. Subsequently, the primary antibody solution was discarded and each sample was washed 5 times with 100.0 µL/well of PBS (each wash was for 5 min at RT). Goat anti-rabbit Ig-HRP secondary antibody solution (1:6000 in 5% BSA in PBS, 50.0 µL/well) was added and incubated for 1 h at RT. The secondary antibody solution was washed 5 times with 100.0 µL/well of PBS (each wash for 5 min at RT). Freshly prepared TMB substrate (100.0 µL/well), was added and the plate was incubated at room temperature (RT) until desired color was developed. The reaction was then stopped with 2 M H2SO4 and the absorbance at 450 nm was measured using the Synergy H1 fluorescent plate reader from Biotek. Cells were stained by adding 1 × Janus green stain, incubating for 5 min at RT. The dye was removed and the sample washed 5 times with water. Afterward 0.1 mL 0.5 M HCl per well were added and incubated for 10 min. After 10 sec shaking, the OD at 595 nm was measured using the Synergy H1 fluorescent plate reader from Biotek.

HepG2 cells = test: Fluorescent LDL uptake cell based assay in PCSK9-treated HepG2 cells; parameters: species or system human; conditions: for LDL-uptake restored (versus untreated cells): then LDL-DyLight 550 2 h, PCSK9 alone reduced uptake by 32.7%, mean of three independent experiments; for Times more active than Pep2-8 in restoring LDL uptake: compared with 50 µM Pep2-8
Experimental: as §1
HepG2 cells (3.0 × 10^4/well) were seeded in black 96-well plates and kept in complete growth medium for 2 d before treatment. The third day, they were treated with 4.0 μg/mL PCSK9 and 4.0 μg/mL PCSK9 + peptides (0.5-50.0 µM), and vehicle (H2O) for 2 h with at 37 °C under 5% CO2 atmosphere. At the end of the treatments, the culture medium was replaced with 50.0 μl/well LDL-DyLight™ 550 working solution (Cayman Chemical Company, Ann Arbor, MI, US). The cells were additionally incubated for 2 h at 37 °C and then the culture medium was aspirated and replaced with PBS (100.0 μl/well). The degree of LDL uptake was measured using the Synergy H1 fluorescent plate reader from Biotek (excitation and emission wavelengths 540 and 570 nm, respectively).

[3] = target: T1, PCSK9/LDLR PPI (His-tagged PCSK9, recombinant LDLR-AB domain) (Homo sapiens, UniProt Q8NBP7); test: In vitro PCSK9-LDLR binding assay (CycLex); conditions: peptide 100 µM; absorbance 450 nm; three independent experiments in duplicate
T1 construct: purchased CycLex Co., Nagano, Japan
T1 sequence (Q8NBP7 153-692): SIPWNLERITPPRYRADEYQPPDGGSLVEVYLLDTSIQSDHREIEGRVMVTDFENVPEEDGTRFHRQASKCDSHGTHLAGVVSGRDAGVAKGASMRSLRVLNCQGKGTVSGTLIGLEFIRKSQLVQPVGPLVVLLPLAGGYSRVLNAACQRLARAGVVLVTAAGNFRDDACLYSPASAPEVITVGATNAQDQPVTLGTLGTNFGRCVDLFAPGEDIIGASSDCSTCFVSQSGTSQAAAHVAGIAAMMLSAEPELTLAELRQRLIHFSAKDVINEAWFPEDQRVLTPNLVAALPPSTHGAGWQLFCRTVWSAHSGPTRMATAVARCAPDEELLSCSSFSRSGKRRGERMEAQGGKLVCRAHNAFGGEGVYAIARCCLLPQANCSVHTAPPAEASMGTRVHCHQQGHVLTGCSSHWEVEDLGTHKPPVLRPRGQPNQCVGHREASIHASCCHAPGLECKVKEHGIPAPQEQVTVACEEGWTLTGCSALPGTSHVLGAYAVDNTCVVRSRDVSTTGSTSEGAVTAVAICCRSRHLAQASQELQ
T1 sequence (Q8NBP7 31-152 partner limits assumed): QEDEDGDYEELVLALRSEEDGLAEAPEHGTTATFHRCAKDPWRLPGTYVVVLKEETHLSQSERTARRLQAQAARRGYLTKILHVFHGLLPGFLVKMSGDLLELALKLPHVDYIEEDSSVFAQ
Experimental: Biochemical experiments, based on a PCSK9-LDLR binding assay, were performed in order to compare the ability of each derivative to impair the PPI between PCSK9 and LDLR. […] Initially, in agreement with recently published conditions[27], a preliminary screening was performed at the fixed concentration of 100 µM.
The absorbance at 450 nm was measured using the Synergy H1 fluorescent plate reader (Biotek, Bad Friedrichshall, Germany).

PCSK9/LDLR PPI = conditions: read-out: IC50 of PCSK9/LDLR PPI inhibition; cited from earlier work
Excerpt: Recently, innovative technological solutions for controlling peptide metabolism and advanced administration strategies[14]–[16] have renewed the interest for novel inhibitory peptides. […] Another study, carried out by us, has identified two peptides able to inhibit the PCSK9/LDLR PPI[11]: they derive from the hydrolysis of lupin protein and have the following sequences, […] (P5) and […] (T9).

PCSK9 = test system: PCSK9; parameters: method as in PMID 28825733; conditions: lower affinity than Pep2-8, still detectable by SPR; cited from earlier work
[4] = target: T2, recombinant His-tagged PCSK9 protein (proprotein convertase subtilisin/kexin type 9) (UniProt Q8NBP7 31-692); test: ELISA; CycLex in vitro PCSK9-LDLR binding assay (colorimetric semi-quantitative solid phase binding assay); wells coated with recombinant LDLR-AB domain; His-tagged PCSK9 added with peptide (1.0-300.0 uM; first screen at 100 uM); bound His-tagged PCSK9 read as absorbance at 450 nm; competition; conditions: both partners purified
T2 construct: Proprotein convertase subtilisin/kexin type 9 (PCSK9), recombinant, of the CycLex kit; the functional rows use this molecule; also called PCSK9-WT
T2 sequence (Q8NBP7 31-692): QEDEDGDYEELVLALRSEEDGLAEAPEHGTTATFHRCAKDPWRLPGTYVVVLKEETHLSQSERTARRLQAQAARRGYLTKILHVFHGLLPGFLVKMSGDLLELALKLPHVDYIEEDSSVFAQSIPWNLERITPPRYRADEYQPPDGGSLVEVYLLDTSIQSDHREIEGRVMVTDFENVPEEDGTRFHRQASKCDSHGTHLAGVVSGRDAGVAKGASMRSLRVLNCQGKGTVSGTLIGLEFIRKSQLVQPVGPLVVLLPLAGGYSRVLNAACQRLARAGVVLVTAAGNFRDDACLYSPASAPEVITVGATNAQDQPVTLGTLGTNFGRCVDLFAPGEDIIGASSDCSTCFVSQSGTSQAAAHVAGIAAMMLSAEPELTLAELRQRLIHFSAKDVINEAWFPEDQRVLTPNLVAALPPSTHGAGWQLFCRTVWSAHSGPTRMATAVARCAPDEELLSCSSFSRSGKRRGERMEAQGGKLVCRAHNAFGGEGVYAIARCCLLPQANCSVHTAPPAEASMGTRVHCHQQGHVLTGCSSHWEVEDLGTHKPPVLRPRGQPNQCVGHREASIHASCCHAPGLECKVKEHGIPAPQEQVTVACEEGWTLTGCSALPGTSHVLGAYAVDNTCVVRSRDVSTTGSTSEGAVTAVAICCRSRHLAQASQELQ

[5] = peptide 0.5 µM + 4 µg/mL PCSK9, 2 h
[6] = peptide 1 µM + 4 µg/mL PCSK9, 2 h
[7] = peptide 0.5 µM + 4.0 µg/mL PCSK9, 2 h
[8] = peptide 1.0 µM + 4.0 µg/mL PCSK9, 2 h

## Ac-TVFTSWEEYLDWV-NH 2 [Pep2-8, reference compound]
[1]; FACS, 50 μM peptide, 4 h co-incubation with 15 μg/mL PCSK9, ref Zhang and co-workers
  Surface LDLR levels renewed: about 70%
[2]; peptide 50 µM + 4 µg/mL PCSK9, 2 h
  LDLR protein level restored (versus control cells): 83.36% and 83.4%
HepG2 cells; peptide 50 µM + 4.0 µg/mL PCSK9, 2 h
  LDL-uptake restored (versus untreated cells): 98.9%

## Ac-TVFTSWEEALDWV-NH2 [[Y9A]Pep2-8]
[2]; [5]
  LDLR protein level restored (versus control cells): 81.9%
[2]; [6]
  LDLR protein level restored (versus control cells): 89.9%
[3]
  Impairment of PCSK9-LDLR binding versus control: −69.8%
HepG2 cells
  Times more active than Pep2-8 in restoring LDL uptake: about 50 fold
HepG2 cells; [7]
  LDL-uptake restored (versus untreated cells): 83.4%
HepG2 cells; [8]
  LDL-uptake restored (versus untreated cells): 99.0%

## Ac-TVFRSWEEYLDYV-NH2 [[T4R,W12Y]Pep2-8]
[2]; [5]
  LDLR protein level restored (versus control cells): 68.1%
[2]; [6]
  LDLR protein level restored (versus control cells): 75.3%
[2]; peptide 10.0 µM + 4 µg/mL PCSK9, 2 h
  LDLR protein level restored (versus control cells): 88.3%
[3]
  Impairment of PCSK9-LDLR binding versus control: −93.0%
HepG2 cells
  Times more active than Pep2-8 in restoring LDL uptake: ~5 fold
HepG2 cells; [7]
  LDL-uptake restored (versus untreated cells): 81.6%
HepG2 cells; [8]
  LDL-uptake restored (versus untreated cells): 88.0%
HepG2 cells; peptide 10.0 µM + 4.0 µg/mL PCSK9, 2 h
  LDL-uptake restored (versus untreated cells): 92.5%

## TVFTSWEEYLDWV-GSC- CRLPWNLQRIGLPG [Fusion 1 peptide]
[1]; HepG2 cells, 5.0 µM (tested 0.1 to 5.0 µM)
  LDLR restored in presence of PCSK9: 90%
[1]; HepG2 cells
  Fold more potent than reference peptide Pep2-8 in preventing PCSK9-mediated cell surface LDLR degradation: about 20 fold

## LILPKHSDAD [Peptide P5]
PCSK9/LDLR PPI
  IC50: 1.6 µM

## Ac-TAFTSWEEYLDWV-NH2 [[V2A]Pep2-8, alanine single-point mutant of Pep2-8, computational only]
PCSK9
  Affinity on PCSK9: low affinity

B1: [Y9A]Pep2-8 (Ac-TVFTSWEEALDWV-NH2) (peptide)
peptide: Ac-TVFTSWEEALDWV-NH2
notes: analog of Pep2-8 with Y9A, designed by computation; source: synthetic peptide (bought: PRIMM Biotech / GenScript, >95% purity)
[4]
  IC50: 27.1 µM
  percent change of PCSK9-LDLR binding at 100 µM peptide versus the control: -69.8%

B2: [T4R,W12Y]Pep2-8 (Ac-TVFRSWEEYLDYV-NH2) (peptide)
peptide: Ac-TVFRSWEEYLDYV-NH2
notes: analog of Pep2-8 with T4R and W12Y, designed by computation; source: synthetic peptide (bought: PRIMM Biotech / GenScript, >95% purity)
[4]
  IC50: 14.5 µM
  percent change of PCSK9-LDLR binding at 100 µM peptide versus the control: -93%
